# How the values were obtained:
# [1] = system: FKBP5; assay: FKBP5 transcription in peritoneal resident macrophages (PRM) and spleen cells after in vivo treatment; design: species or system hVISTA mice; conditions: linker payloads as anti-VISTA conjugates; for FKBP5 induction in splenic cells (conclusions): day 1, 7, 14
# [2] = system: peritoneal resident macrophages (PRM); assay: In vivo treatment/ex vivo PRM activation, TNFα and IL-6 in supernatant; design: species or system hVISTA mice; conditions: for controlling cytokine response in PRM when dosed 14 days early (conclusions) / potency in PRM cytokine model when dosed 7 days early (conclusions): linker/payloads as anti-VISTA conjugates; for preventing ex vivo induction of TNFα and IL-6 in PRM: Experiment 9: linker payloads as conjugates, 7 days post 0.2 mg/Kg of GC payload, supernatant 24h
# Procedure: Based thereon we developed a model to allow us to evaluate long-term anti-inflammatory impact of ADC on specific target populations, such as PRMs. […] In the absence of GC treatment, after 2h PRMs become highly activated as shown by increases in cytokine production. […] The objective of these studies was to evaluate the efficacy and pharmacodynamic range of INX human VISTA antibodies conjugated to a glucocorticoid payload as compared to free Dex.
# After euthanasia, mice were injected in the peritoneal cavity with 7 ml of PBS/0.5% BSA/2 mM EDTA. After a brief massage of the peritoneum, a small incision was performed and the peritoneal lavage collected. PRM were isolated using negative selection (Miltenyi kit, ref 130-110-434). Spleen were dissected and dissociated mechanically; monocytes were isolated using […] (Stem Cell, EasySep™ Mouse CD11b Positive Selection Kit II).
# PRMs were resuspended in RPMI 1640 with 10% FBS, 10 mM Hepes, Penicillin/Streptomycin and glutamine and 100,000 cells were plated per well in a 96-well tissue culture plate. Supernatants were collected at 2 and 24h post plating and stored at −80° C. […]
# • BioLegend (cat #430904) ELISA MAX Deluxe Set Mouse TNF-α • BioLegend (cat #431304) ELISA MAX Deluxe Set Mouse IL-6
# ELISAs were conducted following the manufacturer's included protocol.
# [3] = system: LPS stimulated human PBMCs; assay: LPS stimulated human PBMC, IL-1β and IL-6 ELISA; format: cell-based
# How it was run: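 Human PBMC (1-2 healthy donors), 150,000 cells/well, treated with test agents at 1,000 nM down to 1 nM or 0.2 nM, in duplicate. LPS at 1 ng/ml added immediately after free payload or 4 h after conjugates; IL-1β and IL-6 in supernatants measured by ELISA.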
# [4] = Linker payload and released payload in serum and peripheral blood leukocytes (MS); format: in vivo, cynomolgus monkey; conditions: INX234P 15 mg/Kg i.v., analyte as labelled
# Procedure: MS quantification was performed by Quintara Discovery on cell pellets and on serum.
# Briefly, cell pellets were suspended with 100 μL of 20% methanol.
# Normalization of the data to cell volume (ng/ml) was done by first calculating the cell numbers based on the PBL or WBC hematological count and the fixed volume for each sample processed for MS. We then converted to volume by using the arbitrary mean corpuscular volume (MCV) of […] per cell that is the most frequently adopted (3).
# Each plasma sample was extracted with acetonitrile: methanol containing internal standard (Verapamil).
# [5] = system: FKBP5; assay: FKBP5 transcription in isolated human monocytes, B cells and Tregs; format: cell-based; conditions: Experiment 1: 20 nM payload, 1 day
# Source text: Monocytes or B cells were isolated from healthy donor blood samples and treated with free steroid, anti-VISTA conjugated steroid, or conjugated isotype control. RNA was isolated, and change in FKBP5 transcript level assessed by qPCR.
# The various immune populations were isolated using different cell isolation kits and following manufacturer instructions: • EasySep Human monocyte enrichment kit without CD16 depletion (StemCell cat #19058) • Pan B cell isolation kit, human (Miltenyi Biotec, 130-101-638). • EasySep™ Human CD4+CD127 low CD49d-regulatory T cell enrichment Kit (StemCell cat #19232)
# Monocytes, B cells or Tregs were plated (from single donors) at 2×10^6 cells per well in a 12-well plate in RPMI, 10% human AB serum, 10 mM Hepes, 1× Penicillin/Streptomycin/Glutamine.
# For single dose experiments, cells were treated with 20 nM free J payload or INX-SM-3 payload or the molar payload equivalent of huIgG1si J, INX201J or INX231P (the linked form of INX-SM-3). […]
# After one wash with PBS, RNA was isolated from cell pellets using either the RNeasy Plus Mini kit (Qiagen, PN: 74136) or NucleoSpin RNA Plus (Macherey-Nagel #740984.250). […] RNA concentration was assessed by UV spectroscopy using a Nanodrop 2000. […]
# Quantitative Real-Time PCR was done using Taqman master mix 2× kit (#4369016) and run on a QuantStudio3 from Applied Biosystem. […]
smiles,measurement,setting,value
"C[C@]12C=CC(=O)C=C1CC[C@@H]1[C@@H]2[C@@H](O)C[C@@]2(C)[C@H]1C[C@H]1O[C@@H](c3ccc(OC4CC5(CC(NC(=O)[C@H](CCC(=O)O)NC(=O)CNC(=O)CBr)C5)C4)cc3F)O[C@]12C(=O)CO (stereo partly drawn) [INX A5, (S)-4-(2-(2-bromoacetamido)acetamido)-5-((6-(3-fluoro-4-((6aR,6bS,7S,8aS,8bS,10R,11aR,12aS,12bS)-7-hydroxy-8b-(2-hydroxyacetyl)-6a,8a-dimethyl-4-oxo-2,4,6a,6b,7,8,8a,8b,11a,12,12a,12b-dodecahydro-1H-naphtho[2′,1′:4,5]indeno[1,2-d][1,3]dioxol-10-yl)phenoxy)spiro[3.3]heptan-2-yl)amino)-5-oxopentanoic acid]",FKBP5 induction when dosed 14 days early (conclusions),[1],still display significant potency when dosed 14 days early in regard to FKBP5 induction
same,controlling cytokine response in PRM when dosed 14 days early (conclusions),[2],significant potency in controlling cytokine response in PRM when dosed 14 days early
same,potency of conjugated linker payloads over INX J (conclusions),[3],enhanced potency
"C[C@]12C=CC(=O)C=C1CC[C@@H]1[C@@H]2[C@@H](O)C[C@@]2(C)[C@H]1C[C@H]1O[C@@H](c3ccc(CC4CC5(C4)CC(NC(=O)[C@H](CC(N)=O)NC(=O)CNC(=O)CBr)C5)cc3)O[C@]12C(=O)CO (stereo partly drawn) [INX A11, (S)-2-(2-(2-bromoacetamido)acetamido)-N1-(6-(4-((6aR,6bS,7S,8aS,8bS,10R,11aR,12aS,12bS)-7-hydroxy-8b-(2-hydroxyacetyl)-6a,8a-dimethyl-4-oxo-2,4,6a,6b,7,8,8a,8b,11a,12,12a,12b-dodecahydro-1H-naphtho[2′,1′:4,5]indeno[1,2-d][1,3]dioxol-10-yl)benzyl)spiro[3.3]heptan-2-yl) succinamide]",FKBP5 induction when dosed 14 days early (conclusions),[1],still display significant potency when dosed 14 days early in regard to FKBP5 induction
same,controlling cytokine response in PRM when dosed 14 days early (conclusions),[2],significant potency in controlling cytokine response in PRM when dosed 14 days early
same,potency of conjugated linker payloads over INX J (conclusions),[3],enhanced potency
"C[C@]12C=CC(=O)C=C1[C@@H](F)C[C@H]1[C@@H]3C[C@H]4O[C@@H](c5ccc(CC67CC(NC(=O)[C@H](CCC(=O)O)NC(=O)CNC(=O)CBr)(C6)C7)cc5)O[C@@]4(C(=O)CO)[C@@]3(C)C[C@H](O)[C@@]12F [INX S, (S)-4-(2-(2-bromoacetamido)acetamido)-5-((3-(4-((2S,6aS,6bR,7S,8aS,8bS, 10R,11aR,12aS,12bS)-2,6b-difluoro-7-hydroxy-8b-(2-hydroxyacetyl)-6a,8a-dimethyl-4-oxo-2,4,6a,6b,7,8,8a,8b,11a,12,12a,12b-dodecahydro-1H-naphtho[2′,1′:4,5]indeno[1,2-d][1,3]dioxol-10-yl)benzyl)bicyclo[1.1.1]pentan-1-yl)amino)-5-oxopentanoic acid]",FKBP5 induction when dosed 14 days early (conclusions),[1],still display significant potency when dosed 14 days early in regard to FKBP5 induction
same,FKBP5 induction in splenic cells (conclusions),[1],"Significant FKBP5 induction is seen at day 1, 7, and 14 in splenic cells"
same,preventing ex vivo induction of TNFα and IL-6 in PRM,[2],remarkable long-term potency in controlling cytokine responses
same,controlling cytokine response in PRM when dosed 14 days early (conclusions),[2],significant potency in controlling cytokine response in PRM when dosed 14 days early
same,potency in PRM cytokine model when dosed 7 days early (conclusions),[2],remarkably more potent than payloads INX P and INX R when dosed 7 days early
"C[C@]12C=CC(=O)C=C1CC[C@@H]1[C@@H]2[C@@H](O)C[C@@]2(C)[C@H]1C[C@H]1O[C@@H](c3ccc(CC45CC(NC(=O)[C@H](CCC(=O)O)NC(=O)CNC(=O)CBr)(C4)C5)cc3)O[C@]12C(=O)COP(=O)(O)O [INX T, (S)-4-(2-(2-bromoacetamido)acetamido)-5-((3-(4-((6aR,6bS,7S,8aS,8bS,10R,11aR,12aS,12bS)-7-hydroxy-6a,8a-dimethyl-4-oxo-8b-(2-(phosphonooxy)acetyl)-2,4,6a,6b,7,8,8a,8b,11a,12,12a,12b-dodecahydro-1H-naphtho[2′,1′:4,5]indeno[1,2-d][1,3]dioxol-10-yl)benzyl)bicyclo[1.1.1]pentan-1-yl)amino)-5-oxopentanoic acid]",FKBP5 induction when dosed 14 days early (conclusions),[1],still display significant potency when dosed 14 days early in regard to FKBP5 induction
same,FKBP5 induction in splenic cells (conclusions),[1],"Significant FKBP5 induction is seen at day 1, 7, and 14 in splenic cells"
same,controlling cytokine response in PRM when dosed 14 days early (conclusions),[2],significant potency in controlling cytokine response in PRM when dosed 14 days early
"C[C@]12C=CC(=O)C=C1CC[C@@H]1[C@@H]2[C@@H](O)C[C@@]2(C)[C@H]1C[C@H]1O[C@@H](c3ccc(CC45CC(NC(=O)[C@H](CCCCN)NC(=O)CNC(=O)CBr)(C4)C5)cc3)O[C@]12C(=O)CO [INX W, (S)-6-amino-2-(2-(2-bromoacetamido)acetamido)-N-(3-(4-((6aR,6bS,7S,8aS,8bS,10R,11aR,12aS,12bS)-7-hydroxy-8b-(2-hydroxyacetyl)-6a,8a-dimethyl-4-oxo-2,4,6a,6b,7,8,8a,8b,11a,12,12a,12b-dodecahydro-1H-naphtho[2′,1′:4,5]indeno[1,2-d][1,3]dioxol-10-yl)benzyl)bicycle[1.1.1]pentan-1-yl) hexanamide]",FKBP5 induction when dosed 14 days early (conclusions),[1],still display significant potency when dosed 14 days early in regard to FKBP5 induction
same,preventing ex vivo induction of TNFα and IL-6 in PRM,[2],remarkable long-term potency in controlling cytokine responses
same,potency in PRM cytokine model when dosed 7 days early (conclusions),[2],remarkably more potent than payloads INX P and INX R when dosed 7 days early
"C[C@]12C=CC(=O)C=C1CC[C@@H]1[C@@H]2[C@@H](O)C[C@@]2(C)[C@H]1C[C@H]1O[C@@H](c3ccc(CC45CC(NC(=O)[C@H](CCC(=O)O)NC(=O)CNC(=O)CSC[C@H](N)C(=O)O)(C4)C5)cc3)O[C@]12C(=O)CO [P-cys, (S)-4-(2-(2-(((R)-2-amino-2-carboxyethyl)thio)acetamido)acetamido)-5-((3-(4-((6aR,6bS,7S,8aS,8bS,10R,11aR,12aS,12bS)-7-hydroxy-8b-(2-hydroxyacetyl)-6a,8a-dimethyl-4-oxo-2,4,6a,6b,7,8,8a,8b,11a,12,12a,12b-dodecahydro-1H-naphtho[2′,1′:4,5]indeno[1,2-d][1,3]dioxol-10-yl)benzyl)bicyclo[1.1.1]pentan-1-yl)amino)-5-oxopentanoic acid]",serum level by day 8 (192 hr) post injection,[4],below detection
same,time of peak concentration in serum,[4],~12 h
same,Kp,"[4]; cynomolgus monkey, in vivo, read-out: intracellular (PBL) levels as compared to serum",100
"C[C@]12C=CC(=O)C=C1CC[C@@H]1[C@@H]2[C@@H](O)C[C@@]2(C)[C@H]1C[C@H]1O[C@@H](c3ccc(Cc4cccc(N)c4)cc3)O[C@]12C(=O)CO [free J payload, reference compound]",FKBP5 transcription in monocytes and B cells,[5],robust increase in FKBP5 transcription was observed with free J payload in both monocytes and B cells

# — patent US20250108119A1, “NOVEL STEROID PAYLOADS, STEROID LINKERS, ADCs CONTAINING AND USE THEREOF” (IMMUNEXT, INC., priority 2021, published 2025)
